Data as given in patent US20200289611A1, “Methods and Compositions for the Inhibition of Quorum Sensing in Bacterial Infections” (priority 2016, published 2020).
Entries after “also recorded” stand apart in the source; their conditions may differ. Read-outs that look alike come from different tables or passages of the source.

Experiments:
[1] = system: agr (P3-YFP reporter strains, agr types I-IV); experiment: agr P3-YFP reporter quorum quenching assay; format: cell-based, Staphylococcus aureus
Procedure: (§1) Apicidin was tested for quorum quenching activity against all four agr types using P3-YFP reporter strains AH1677 (type I), AH430 (type II) AH1747 (type III), and AH1872 (type IV). (28) Overnight cultures of reporter strains that were grown in TSB supplemented with Cam were inoculated at a dilution of 1:250 into fresh TSB containing Cam. 100 μL, aliquots were added to 96-well microtiter plates containing 100 μL aliquots of TSB containing Cam and 2-fold serial dilutions of apicidin. Readings were recorded at 30 min increments using a Tecan Systems Infinite M200 plate reader.

S. aureus LAC = experiment: Bacterial growth (OD) in reporter time course; format: cell-based, Staphylococcus aureus
Procedure: as §1
Overnight cultures of agr strain types I, II, III, and IV were inoculated 1:500 into 5 ml of TSB (in 17×150 mm culture tubes) containing apicidin at concentrations of 100, 50, 25, 12.5, and 6.25 μg mL (28). All cultures were incubated at 37° C. with shaking (250 rpm), and growth was monitored by periodically transferring 100 μL of culture to a 96-well microtiter plate and reading OD600 in a Tecan Systems Infinite M200 plate reader. […] To quantify hemolytic activity, the filter sterilized culture supernatants from apicidin treated cultures were serially in TSB, and 50 μL aliquots were dispensed in quadruplicate into 96-well microtiter plates. […] Hemolysis was detected by the loss of turbidity as measured at OD630 using a Tecan Infinite M200 plate reader.

[2] = system: agr systems of Staphylococcus epidermidis isolates of each agr-type; experiment: agr-P3 reporter strains of S. epidermidis; format: cell-based
[3] = system: AIP signal biosynthesis (AgrB/AgrD); experiment: Mass spectrometric measurement of AIP production (agrBD in agr null LAC); format: cell-based, Staphylococcus aureus; settings: apicidin treated vs vehicle cultures
Procedure: (§2) To investigate the mechanisms by which apicidin inhibits quorum sensing, a series of in vitro assays were conducted to systematically assess the relative contribution of each of the core genetic elements of the agrBDCA operon (FIG. 13A). The membrane embedded peptidase AgrB, is responsible for processing the AgrD pro-peptide (immature AIP) for extracellular release. To determine if apicidin inhibits agr signaling at the level of AIP signal generation, an established system was used whereby the agrBD genes (under sarA P1 promoter regulation), were integrated into an agr null strain derived from the USA300 isolate LAC (40). This construct enables alterations to AIP signal biosynthesis to be clearly delineated from regulation stemming from signal integration. […] Next, the possibility that apicidin interferes with the sensory activity of AIP receptor AgrC was explored. For this, a R235H construct bearing a point mutation that confers constitutive AgrC activity, and thereby enables phospho-activation of AgrA to occur independently of AIP binding, was employed. […] Next, it was determined if AgrA serves as the target of apicidin. To this end, an agr null reporter construct, whereby agrP3 lux activation can only be achieved through the constitutive production of plasmid encoded AgrA […], was employed. […]

AgrC = experiment: Constitutive AgrC mutant (R235H) assays; format: cell-based, Staphylococcus aureus
Procedure: as §2

AgrA = molecular target: T1, AgrA (Staphylococcus aureus, UniProt P0A0I7); experiment: agr null agrP3 lux reporter with plasmid encoded AgrA; format: cell-based; settings: agr null strain
T1 construct: expressed in transfected cells; host or cells: agr null S. aureus agrP3-lux reporter strain
T1 sequence (P0A0I7 whole entry): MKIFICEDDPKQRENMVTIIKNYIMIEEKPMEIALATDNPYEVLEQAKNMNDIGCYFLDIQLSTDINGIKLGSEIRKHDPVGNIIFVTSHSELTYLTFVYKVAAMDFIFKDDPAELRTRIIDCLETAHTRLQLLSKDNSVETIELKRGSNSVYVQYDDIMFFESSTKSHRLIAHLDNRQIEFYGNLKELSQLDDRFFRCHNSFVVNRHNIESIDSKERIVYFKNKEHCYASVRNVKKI
Procedure: as §2

MRSA transcriptome (LAC) = experiment: RNA-seq of WT LAC cultures; format: cell-based, Staphylococcus aureus
Procedure: Cultures of LAC and LAC ? agr were grown in TSB with DMSO alone or 100 µM apicidin (diluted in neat DMSO). All four cultures were grown to optical density of 1.4 at 600 nm, and the RNA was purified. The samples were subjected to DNase treatment and sample was quality was affirmed via Bioanalyzer (Agilent). […] was depleted with a Ribo-Zero rRNA Removal Kit from gram positive bacteria (Illumina). cDNA libraries were generated at the University of Iowa Genomics Division using the TruSeq Stranded mRNA Library Prep kit (Illumina). Sample were barcoded, pooled and sequenced in a 100×100 pared end reads using HiSeq_FPR3757 genome sequence using SeqMan NGen (DNASTAR) and the alignment were analyzed using ArrayStar (DNASTAR).
To evaluate the impact of apicidin upon global transcriptional regulation RNA-seq analysis upon WT LAC cultures grown in the presence of apicidin or vehicle was conducted. For purposes of comparing the effects of apicidin upon the MRSA transcriptome with those resulting from agr deletion, parallel RNA seq-analysis of WT and Δagr preparations were performed. A four-fold cutoff as the threshold for differential gene expression was used, and apicidin altered the expression of thirty transcripts, with >50% of these representing prototypical agr targets such hla, RNAIII, psms, and spl genes (FIG. 10).

MRSA (USA300 LAC) = experiment: Intradermal MRSA skin infection model; format: in vivo, mice (C57BL/6 and BALB/c); settings: for cutaneous bacterial burden: Lux+ MRSA bioluminescence (IVIS)
Procedure: At D0, age, strain and sex matched mice were anesthetized with isoflurane, abdominal skin was carefully shaved and exposed skin was cleansed by wiping with an alcohol prep pad. For inoculum preparation, a USA 300 MRSA strain (AH1263), its deletion mutant, LAC strains engineered for constitutive bioluminescence via lux operon insertion (AH3700) or the Lux+ LAC engineered to constitutively express red fluorescent protein (AH 3868), green fluorescent protein (AH3669) were grown to mid-log-phase, pelleted and resuspended in DPBS to achieve 50 μl inoculum mixtures that contained either 2×10^7 CFUs+/−5 μg apicidin (diluted in neat DMSO). Apicidin or DMSO containing inoculums were injected intradermally into abdominal skin. Baseline body weights of mice were measured before infection and every day thereafter for a period of 7 days. For determination of lesion size, digital photos of skin lesions were taken daily and analyzed via ImageJ software.
The potent in vitro activity of apicidin encouraged an assessment of its efficacy in vivo. To this end, an intradermal challenge model was employed by delivering a single 5 μg dose of apicidin along as part of the inoculum suspension containing 2×10^7 MRSA organisms.

[4] = system: agr activation of LAC agr-P3 lux; experiment: Measurement of quorum quenching in vivo (agr-P3 lux reporter strain); design: species or system mice
Procedure: Inoculum preparation for assessing quorum quenching in vivo: An LAC reporter strain engineered to couple agr activation with bioluminescence, agr-P3 lux (AH2759) was grown in TSB medium+chloramphenicol, overnight at 37° C. in a shaking incubator set to 200 rpm. Overnight cultures were diluted 1:100 TSB+chloramphenicol and subcultured to an optical density of 0.1 at 600 nm hr). Bacterial cells were the pelleted and resuspended in sterile saline. […] Using the image analysis tools in living image software, circular analysis windows (of uniform area) were overlaid onto abdominal regions of interest (as depicted in FIG. 8e) and the corresponding bioluminescence values (total flux) were measured and plotted vs. time after infection.
To this end, mice with an agr-P3 lux reporter strain were challenged and carefully monitored the kinetics of agr activation over a six-hour period immediately following infection.

[5] = system: polymorphonuclear neutrophils (PMN) at MRSA infected skin; experiment: Flow cytometry of PMNs in infected skin; format: in vivo, mice
Procedure: For skin: abdominal skin ulcerations were excised and incubated in trypsin (0.6% in PBS) for 75 min at 37° C.; then cut into small pieces and incubated in Collagenase type II (0.5 mg/ml RPMI) for 90 min at 37° C. Skin cell suspensions were generated by serial passage of skin fragments through 18 and 20 gauge syringes. IN cell suspensions were generated mincing inguinal LNs with a razor blade before by serial passage of skin fragments through 18 and 20 gauge syringes. AU tissue preps were passed through a 70 am filter before immune cell staining. For whole blood: blood was collected, washed and resuspended in Tris-buffered ammonium chloride to lyse red blood cells.
For staining of skin, LN and whole blood preparations, the following antibodies: Anti-Ly6G (AI8), Anti-Ly6C (HK1.4), -CD11b (M1/70), CD45 (30-F11) were purchased from BioLegend. To block nonspecific binding, cells were incubated with rat anti-mouse CD16/32 FcγRIII/II (2.4G2) and vortexed prior to surface staining. In all experiments, LN or blood cells were collected on a FACS LSR using Cellquest software, and analyzed via FlowJo software. Dead cells were excluded by low forward-scatter and side-light scatter. Spectral overlaps between fluorochrome channels were corrected by automated compensation on singly stained, positive controls for each fluorochrome. In general, 50,000 cells were collected/tube. Flow cytometric analyses of agr-interference in bacterial cultures were conducted.

[6] = system: CXCL-2 and G-CSF in lesional tissue; experiment: Cytokine measurements from tissue homogenates; format: in vivo, mice; settings: lesional tissue one day after infection
Procedure: Biopsy punches (4 mm), obtained from the center of skin ulcerations 1 day after infection, were homogenized with in sterile RPMI with proteinase inhibitor cocktail. The supernatants from these preparations were incubated with a multiplex bead array for IL-1β, G-CSF, KC (CXCL1), and CXCL2. Data were collected on a Luminex 200 (Luminex, Austin, Tex., USA) and analyzed with […]

CCC(=O)CCCCC[C@@H]1NC(=O)[C@H]2CCCCN2C(=O)[C@H](C(C)CC)NC(=O)[C@H](Cc2cn(OC)c3ccccc23)NC1=O (stereo partly drawn) [apicidin]
agr inhibition relative to its analogues [1]: showed the most impressive actions as an agr inhibitor
MICs for quorum sensing inhibition ([1]; across S. aureus isolates): low micromolar
agr-type dependence of quorum quenching potency ([1]; agr P3 driven YFP expression, time course): types II and IV representing the most sensitive and resistant respectively
inhibition of quorum sensing (agr P3 reporter) ([1]; agr types I-IV reporter strains): inhibited quorum sensing activity across S. aureus isolates; also recorded: inhibition extends to all 4 agr types; also recorded: inhibited the quorum sensing responses of multiple agr types
IC50 of agr-inhibition ([1]; all agr types): μM concentrations that were sub-inhibitory for growth
growth inhibition / bactericidal effect (S. aureus LAC): non-bactericidal; also recorded: minimal growth inhibition
quorum quenching in S. epidermidis [2]: extend to multiple staphylococcal species
quorum quenching in S. epidermidis ([2]; listed as Apicidin): quorum sensing inhibition across S. epidermidis agr types
effect on AIP production [3]: does not target AIP signal biosynthesis; also recorded: does not alter the release of AIP signals
quorum quenching in agr-P3 reporter strain with constitutive AgrC activity (AgrC): maintenance of potent quorum quenching activity
inhibition of lytic activity, constitutive AgrC mutant (AgrC; RBC lysis, R235H strain): dose dependent inhibition of lytic activity
inhibition of AgrA-dependent agr-P3 reporter activation (AgrA): dose dependent inhibition of agr-P3 driven bioluminescence; also recorded: inhibited agr-P3 reporter activation
transcriptional signature (MRSA transcriptome (LAC)): narrowly focused upon the agr virulon; also recorded: largely confined to agr-regulated transcripts
number of transcripts with altered expression (MRSA transcriptome (LAC); 100 uM apicidin, four-fold cutoff): thirty
share of altered transcripts that are prototypical agr targets (MRSA transcriptome (LAC); four-fold cutoff): > 50%
cutaneous bacterial burden (MRSA (USA300 LAC)): reduced; also recorded: decrease in bacterial burden was observed throughout the experiment
cutaneous bacterial burden (MRSA (USA300 LAC); listed as Apicidin): reduced cutaneous bacterial burden
CFUs recovered from lesional skin (MRSA (USA300 LAC); one day after infection): significantly fewer CFUs were recovered
skin lesion / dermatopathology (MRSA (USA300 LAC); single 5 ug dose with 2x107 MRSA, intradermal, 14 days): significantly reduced MRSA-induced dermatopathology
skin ulcers after agr-P3 lux reporter strain challenge ([4]; 14-day period): dramatic reduction in dermatopathology
agr activation in vivo ([4]; agr-P3 lux reporter, 5 ug apicidin, first hours after infection): reduced quorum sensing activity in vivo; also recorded: significant interference of agr activation in vivo; also recorded: high level of agr interference
PMN density / accumulation at infected skin ([5]; 24 hours post infection): enhanced; also recorded: increased the density of PMNs within infected wounds; also recorded: augmenting their accumulation
frequency of PMN able to phagocytose MRSA ([5]; DsRed+ MRSA): Though not significantly, a trend showing increased frequency
number of PMNs that phagocytosed MRSA ([5]; lesional skin preparations): increased; also recorded: overall enhancement MRSA uptake within the entire network of cutaneous PMNs
frequency of apoptotic PMNs ([5]; lesional skin, one day after infection): decrease in the frequency of apoptotic PMNs
production of CXCL-2 [6]: decrease
production of G-CSF [6]: decrease
